Results taken from US8486447B2, “Pharmaceutical formulation” (Novartis AG, priority 2003, dated 2013).

Experiment: HPLC analysis of thermal degradation of drug substance and melt-processed solid dispersions
Assay type: physicochemical
Conditions: for HPLC analysis (thermal degradation): Table 1

CN(Cc1ccccc1)C(=O)[C@H](Cc1ccc2ccccc2c1)N(C)C(=O)[C@@H]1CCCN1c1nc(=O)c2ccccc2[nH]1 [TKA731, (S)-1-(4-Oxo-1,4-dihydro-quinazolin-2-yl)-pyrrolidine-2-carboxylic acid[(S)-1-(benzyl-methyl-carbamoyl)-2-naphthalen-2-yl-ethyl]-methyl-amide]
No degradation: HPLC analysis (thermal degradation) (drug load 100%, PVPK-30 0%, amorphous TKA731) | HPLC analysis (thermal degradation) (solid dispersion, drug load 20%, PVPK-30 80%) | HPLC analysis (thermal degradation) (solid dispersion, drug load 30%, PVPK-30 70%) | HPLC analysis (thermal degradation) (solid dispersion, drug load 40%, PVPK-30 60%)
20%: HPLC analysis (degradation) (Table 2, starting from crystalline drug, melting point 175 °C)
No: HPLC analysis (degradation) (Table 2, starting from amorphous drug, Tg 94.5 °C) | HPLC analysis (degradation) (Table 3, amorphous drug load 20%, PVPK-30 70%, sorbitol 10%, processing temperature 170 °C) | HPLC analysis (degradation) (Table 3, amorphous drug load 30%, PVPK-30 65%, sorbitol 5%, processing temperature 170 °C) | HPLC analysis (degradation) (Table 3, amorphous drug load 40%, PVPK-30 60%, sorbitol 0%, processing temperature 170 °C)
